Results published in patent publication US20160184459A1, “CANCER CELL SPECIFIC IMAGING PROBES AND METHODS OF USE” (THE RESEARCH FOUNDATION FOR THE STATE UNIVERSITY OF NEW YORK, priority 2013, published 2016).
Where two headings read alike, the source gives them in different places. Residues, ends and D or L forms follow the SMILES beside them. *: point of attachment. Cbz = O=C(OCc1ccccc1)*

How the values were obtained:
BxPC3 cells (shGFP) = assay: MTT cell viability assay, BxPC3 shGFP; type: cell-based; conditions: Homo sapiens, BXPC-3, 72 hr
Protocol: (§1) FIG. 24. Effect of the prodrug on cell viability of BxPC3 cells (shGFP and shSki). Cells were treated with the indicated dose of drugs (BKAc-5FCR or 5FCR) for 72 hr followed by MTT assay. Data represent mean values of triplicate measurements±standard deviation. IC50 values were derived from nonlinear curve fit of the dose response data using an outlier's exclusion, variable slope model (GraphPad Prism software). All values are means of at least two independent experiments.
(§2) The in vitro efficacy of the compounds in a series of BxPC3 and CFPac-1 derivatives with reduced Class I HDAC activity following Ski knockdown (shSki), HDAC3 knockdown and control (shGFP) was assessed. The growth inhibitory/viability effects of the compounds (IC50 value, the concentration resulting in 50% growth inhibition) on the various cell lines were determined by dose response curve analysis (GraphPad Prism software) of MTT [3-(4,5dimethylthiazol-2-yl)-2,5-diphenyl-tetrazolium bromide] cell viability assay. If the prodrugs are activated in an HDAC-dependent manner, the cells with reduced HDAC activity would be predicted to be more resistant to the prodrug treatment than control cells, while the effect of free parental drugs on both cells would be expected to be similar.

BxPC3 cells (shSki) = assay: MTT cell viability assay, BxPC3 shSki; type: cell-based; conditions: Homo sapiens, BXPC-3, 72 hr
Protocol: as §1, §2

BXPC3 cells = assay: MTS cell viability assay with or without TSA; type: cell-based, human; conditions: 20 μM, 72 hr, TSA 50 nM
Protocol: FIG. 25. Selective cytotoxicity by BKAc-5FCR. Human pancreatic BXPC3 cells were treated with DMSO (vehicle), BKAc-5FCR (20 μM), or 5FCR (20 μM) for 72 hr with or without TSA (50 nM) followed by MTS cell viability assay. Representative phase contrast images of cells treated with DMSO (vehicle) or BKAc-5FCR (20 μM) for 72 hr with or without TSA (50 nM) are shown.

[1] = test system: HDAC and endogenous protease (cathepsin L) activity in BxPC3 and CFPac-1 cells; assay: Live cell enzymatic assay with Boc-Lys(Ac)-AMC, release of AMC; type: cell-based; conditions: for Activation of substrate Boc-Lys(Ac)-AMC: substrate 25 μM, 6 hr
Protocol: FIG. 5. A. HDAC assay using different substrates in BxPC3 cells (shGFP and shSki). Cells were incubated with Boc-Lys(Ac)-AMC or Ac-Arg-Gly-Lys(Ac)-AMC (25 μM) for 1 hr with DMSO (vehicle) or TSA (1 μM) as indicated, followed by cell lysis and trypsin treatment, and fluorescence measurements. Data represent mean values of triplicate measurements±standard deviation. RFU, relative fluorescent units. B. Similar experiment was done as in A but without cell lysis and trypsin treatment. Cells were incubated with the substrates for 2.5 hr.
FIG. 6. A. Release of AMC by combined HDAC and endogenous protease-dependent enzymatic reaction in BxPC3 and CFPac-1 cells (shGFP and shSki). Cells were incubated with substrate Boc-Lys(Ac)-AMC (25 μM) for 6 hr with DMSO (vehicle), TSA (1 μM), or Z-FY-CHO (10 μM) as indicated, followed by fluorescence measurements. Data represent mean values of triplicate measurements±standard deviation. RFU, relative fluorescent units. B. Time course of AMC release in BxPC3 cells (shGFP and shSki). Each cells were incubated with Boc-Lys(Ac)-AMC (25 μM) for 2.5, 6.0, and 23 hr with DMSO (vehicle) or TSA (1 μM) as indicated.
Tissue culture based standard HDAC assays were performed by commercially available fluorimetric HDAC assay kit (SensoLyte, AnaSpec) according to the manufacturer's instruction with modification of using 25 μM Boc-Lys(Ac)-AMC (Bachem) as substrate and measuring parameter (Ex/Em=355 nm/460 nm) for AMC. […] After 15 m incubation at room temperature, the fluorescent signal of AMC was measured by SpectraMax M5 microplate reader (Molecular Devices) at Ex/Em=355 nm/460 nm. Live cell lysyl endopeptidase assay was performed by applying the substrate 25 μM Boc-Lys-AMC (Bachem) [either with DMSO or 100 μM Z-FY-CHO (EMD)] to the overnight culture seeded from 6×10^4 cells in 100 μl medium in 96-well tissue culture plates, followed by 20 h incubation at 37° C. with 5% CO2 atmosphere, then the fluorescent signal of AMC was measured. Live cell enzymatic assay using Boc-Lys(Ac)-AMC was performed by applying the substrate 25 μM Boc-Lys(Ac)-AMC (either with DMSO, 1 μM TSA or 100 μM Z-FY-CHO) to the overnight culture seeded from 6×10^4 cells in 100 μl medium in 96-well tissue culture plates, followed by 20 h incubation at 37° C. with 5% CO2 atmosphere, then the fluorescent signal of AMC was measured. […]
Fluorescence measurement was done at λex=390 nm and λem=460 nm for AMC. […] Cells were then lysed and the lysates incubated with exogenously added excess trypsin to cleave only those lysine residues that are de-acetylated and activate fluorescence. […]

[2] = test system: non-malignant Caco-2 cells; assay: MTS cell viability assay, Caco-2; type: cell-based, human; conditions: parental Puro, MTS, 3 d
Protocol: FIG. 13. Inhibition of cell viability by BKAc-Puro is presented in dose-response curve format for the same cell lines as in FIG. 8. The cell lines were treated with DMSO or the indicated doses of agent (4.22, 8.44, 16.9, 33.8, 67.5, or 135 μM) for 5 d followed by MTS assay. Data represent mean values of triplicate measurements±s.d. (n=3). IC50 values were fit by logistic regression.
FIG. 14. Inhibition of cell viability by parental Puro. The cell lines were treated with the indicated doses of Puro (0, 1.1, 2.1, 4.2, or 8.4 μM) for 3 d followed by MTS assay. Data represent mean values of triplicate measurements±s.d.
Cell number was determined by cell counting using improved Neubauer hemacytometer. Cell viability was calculated as the number of viable cells divided by the total number of cells using Trypan Blue Stain (Invitrogen) to distinguish non-viable cells. Data were obtained from duplicated samples with quadruplicate measurements. MTS based cell viability assay was performed using CellTiter 96 Aqueous Cell Proliferation Assay (Promega) according to the manufacturer's instruction. Either 1 μl of DMSO alone or variable concentrations of BKAc-Puro or Puro in DMSO were added to the cell lines seeded at 5×10^4 cells per well in 96-well tissue culture plates in 100 μl of the growth medium, followed by 3-5 d incubation at 37° C. with 5% CO2 atmosphere. Then 20 μl of the MTS reagent was added to each well. After additional 2-3 h incubation, the absorbance of the formazan at 490 nm was measured by the microplate reader. Percent cell viability was expressed relative to the wells containing cells treated with DMSO alone. Data were obtained from triplicate measurements. […] Determination of non-viable cells using PI staining was performed by adding 1 μg/ml of PI solution (Sigma) to the cell culture, prior to the examination under fluorescence microscopy (Axiovert 3, Carl Zeiss) through a×32 objective equipped with a digital imaging processor (Infinity 3, Lumenera).

[3] = test system: Puro-incorporated proteins in HCT116, HT29, CCD841-CoN and Caco-2 cells; assay: Immunoblotting of Puro-incorporated proteins in cell lysates; type: cell-based, human; conditions: Puro 2.1 μM, 16 h, with or without TSA 0.5 μM
Protocol: (§3) FIG. 27. Levels of Puro-incorporated proteins in the cells were monitored by immunoblotting. Indicated cell lines were treated either with vehicle control DMSO or Boc-KAc-Puro (16.9 μM) in the presence or absence of TSA (0.5 μM) for 20 h, followed by preparation of cell lysates. The lower panel (anti-α-Tubulin) serves as a loading control.
as §3, with “28.” for “27.”, “Puro (2.1” for “Boc-KAc-Puro (16.9”, “16” for “20”, “lysates. […]” for “lysates.”
Cultured cells or tissue samples were sonicated in RIPA lysis buffer (1% NP-40, 0.1% SDS, 50 mM Tris-HCl pH 7.4, 150 mM NaCl, 0.5% sodium deoxycholate, 1 mM EDTA) supplemented with PMSF and protease inhibitor cocktail (Roche) on ice followed by clarification. Protein lysates were separated on sodium dodecyl sulfate-polyacrylamide gels and transferred onto nitrocellulose membranes (Whatman). The primary antibodies used were anti-puromycin (3RH11, KeraFAST) and anti-α-tubulin (Sigma-Aldrich). Proteins of interest were detected with anti-mouse secondary antibody by chemiluminescence (ECL Kit, GE Healthcare Life Sciences).

[4] = single administration, cited from earlier work
cells = assay: 72 hr in vitro cytotoxicity with TSA; type: cell-based; conditions: TSA 1 μM
Text: The prodrugs that are synthesized may have some basal level of cytotoxicity before they are activated by HDAC3. One way to determine the IC50 values of the uncleaved forms of the prodrugs would be to use HDAC inhibitors both in vitro and in vivo. […] […] […] For example, among available HDAC inhibitors, SAHA (Vorinostat), a FDA approved pharmaceutical HDAC inhibitor (Bradner, J. E. et al. 2010), is known to inhibit all of these HDACs with much lower cytotoxicity than TSA. Thus, SAHA is an alternative HDAC inhibitor for the prodrug evaluation as well. By comparing the prodrug ICo values for cytotoxicity under conditions of HDAC inhibition with those values where HDACs are active we are able to provide data on the HDAC dependence of our new class of prodrugs.

[5] = molecular target: T1, lysyl endopeptidase activity (CTSL) in live cells (Homo sapiens, UniProt P07711); assay: Live cell lysyl endopeptidase assay with Boc-Lys-AMC; type: cell-based; conditions: Z-FY-CHO 100 μM, substrate 25 μM, 20 h
T1 construct: endogenous in cells; host or cells: Panel of cultured lines: Caco-2, COGA-10, HCA-7, HT29, HCT116, CCD841-CoN, MiaPaca-2, BXPC-3, HepG2, HeLa (human) and Eph4 (mouse)
Protocol: FIG. 2. Comparative live cell lysyl endopeptidase activity of the same cell lines as in FIG. 1 using substrate Boc-Lys-AMC either with vehicle control DMSO or Z-FY-CHO (100 μM). Data represent mean values of triplicate measurements±s.d. RFU, relative fluorescent units.
Tissue culture based standard HDAC assays were performed by commercially available fluorimetric HDAC assay kit (SensoLyte, AnaSpec) according to the manufacturer's instruction with modification of using 25 μM Boc-Lys(Ac)-AMC (Bachem) as substrate and measuring parameter (Ex/Em=355 nm/460 nm) for AMC. Basically, HDAC substrate 25 μM Boc-Lys(Ac)-AMC [either with DMSO or 1 μM TSA (Sigma)] was applied to the overnight culture seeded from 6×10^4 cells in 100 μl medium in 96-well tissue culture plates, followed by 2 to 3 h incubation at 37° C. with 5% CO2 atmosphere. […] After 15 m incubation at room temperature, the fluorescent signal of AMC was measured by SpectraMax M5 microplate reader (Molecular Devices) at Ex/Em=355 nm/460 nm. Live cell lysyl endopeptidase assay was performed by applying the substrate 25 μM Boc-Lys-AMC (Bachem) [either with DMSO or 100 μM Z-FY-CHO (EMD)] to the overnight culture seeded from 6×10^4 cells in 100 μl medium in 96-well tissue culture plates, followed by 20 h incubation at 37° C. with 5% CO2 atmosphere, then the fluorescent signal of AMC was measured. […]

T1 sequence (P07711 114-288 limits assumed): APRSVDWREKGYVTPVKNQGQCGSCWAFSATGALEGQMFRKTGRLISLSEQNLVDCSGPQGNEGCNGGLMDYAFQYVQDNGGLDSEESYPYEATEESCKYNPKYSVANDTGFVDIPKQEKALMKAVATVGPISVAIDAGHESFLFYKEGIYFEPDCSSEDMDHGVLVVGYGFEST
T1 sequence (P07711 292-333 limits assumed): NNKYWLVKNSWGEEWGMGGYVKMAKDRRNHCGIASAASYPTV

Nc1nc(=O)n([C@@H]2O[C@H](CO)[C@@H](O)[C@H]2O)cc1F [5FCR, 5-fluorocytidine]
IC50 (BxPC3 cells (shGFP)): 1.3 µM
IC50 (BxPC3 cells (shSki)): 1.2 µM

CC(=O)NCCCCC(NC(=O)OC(C)(C)C)C(=O)Nc1nc(=O)n([C@@H]2O[C@H](CO)[C@@H](O)[C@H]2O)cc1F (stereo partly drawn) [BKAc-5FCR, t-butyl (6-acetamido-1-((1-((2R,3R,4S,5R)-3,4-dihydroxy-5-(hydroxymethyl)tetrahydrofuran-2-yl)-5-fluoro-2-oxo-1,2-dihydropyrimidin-4-yl)amino)-1-oxohexan-2-yl) carbamate]
Cytotoxic effect in the presence of HDAC inhibitor TSA (BXPC3 cells): substantially compromised

CC(=O)NCCCC[C@H](NC(=O)OC(C)(C)C)C(=O)Nc1ccc2c(C)cc(=O)oc2c1 [Boc-Lys(Ac)-AMC]
Time course of AMC release ([1]; BxPC3, 25 μM, over 20 hr): released linearly
Activation in live cells relative to total HDAC activity ([1]; BxPC3 live cells, 25 μM, 2.5 hr, without lysis and trypsin): approximately 50%

COc1ccc(C[C@H](N)C(=O)N[C@H]2[C@@H](O)[C@H](n3cnc4c(N(C)C)ncnc43)O[C@@H]2CO)cc1 [Puro, puromycin]
Effect on cell viability [2]: effective
Puro incorporation between cell lines regardless of TSA treatment [3]: no difference
LD50 ([4]; intraperitoneally): 580 mg/kg
LD50 ([4]; intravenously): 335 mg/kg
LD50 ([4]; orally): 720 mg/kg

CC(/C=C/C(=O)NO)=C\[C@@H](C)C(=O)c1ccc(N(C)C)cc1 [TSA, Trichostatin A]
Activation of substrate Boc-Lys(Ac)-AMC ([1]; TSA 1 μM): completely inhibited activation
Cytotoxicity (cells): cytotoxic effect

O=C[C@H](Cc1ccc(O)cc1)NC(=O)[C@H](Cc1ccccc1)NC(=O)OCc1ccccc1 [Z-FY-CHO] (Cbz-Phe-Tyr-aldehyde)
Release of AMC [5]: significantly blocked
Activation of substrate Boc-Lys(Ac)-AMC ([1]; Z-FY-CHO 10 μM): completely abrogated
